{"source": "patent US20240423203A1", "about": "“Herbicidally Active Combination for Agricultural Applications” (priority 2021, published 2024)", "key": {"potato plants [1]": {"tested_on": "potato plants", "assay": "Desiccant action on potato leaf of carfentrazone-ethyl with polyferulates of different molecular weight (Example 4)", "details": "application rate 25 g a.i. ha^−1, 15 DAA"}, "potato plants [2]": {"tested_on": "potato plants", "assay": "Desiccant action on potato leaf, field plots, visual evaluation 15 DAA (Example 3)", "format": "in vivo", "details": "for Desiccation (%): potato leaf, 15 DAA; for effect in combination with the herbicides tested (synergistic / antagonist): potato desiccation, Colby analysis", "description": "The desiccant was applied by spraying."}, "Lemna minor": {"tested_on": "Lemna minor", "assay": "Herbicide activity on Lemna minor in vitro, fresh weight reduction (Example 5)", "format": "in vivo", "details": "all chemicals at 10 mg/L; 7-day exposure", "procedure": "The experiment was carried out in Lemna minor growing in vitro conditions. Lemna minor (duckweed) was bought in the local market. A stock culture was maintained on modified Hoagland medium in a controlled environment. The pH of the medium was adjusted to 6.0, and the plants were grown under static conditions in a plant growth chamber at 25±2° C., light/dark regime of 16 h/8 h.\nFor the experiments, fronds free from any visible chlorosis were taken from the stock cultures and exposed to the appropriate treatment. For each treatment, we used six repetitions with three fronds per repetition as the initial frond number. Individual fronds were transferred to a 12 well multiplate containing Hoagland medium (control), Hoagland medium containing polyferulates, herbicides or the combination as shown in Table 8. All chemicals were evaluated at the same concentration (10 mg/L). The multiplate was covered with a transparent cover to prevent evaporation. The herbicide activity was evaluated as fresh weight reduction compared to untreated plants after one week of incubation in the described conditions."}, "Echinochloa colona": {"tested_on": "Echinochloa colona", "assay": "Herbicide activity on Echinochloa colona, visual evaluation 20 DAT (Example 6)", "format": "in vivo", "description": "Echinochloa colona is a cosmopolitan weed common in crops (mainly rice, maize and vegetables), gardens, roadsides, disturbed sites, waste areas and pastures. It also grows along waterways, on the margins of lakes and ponds, in swamps and wetlands, and in other damp habitats. It has the potential to invade natural areas and completely outcompete native vegetation. This weed pose a significant threat to rice productivity globally and are usually reported as noxious weeds in several economically important crops around the world. E. colona has vigorous growth traits and high seed production since each E. colona plant can produce up to 42,000 seeds. The experiment in Echinochloa colona plants was carried out in independent pots and in four replications. […] The products were applied by spraying. The herbicide activity was visually evaluated 20 days after treatment."}, "potato plants [3]": {"tested_on": "potato plants", "assay": "Greenhouse potato trial: fresh weight reduction and quantum yield of PSII (Example 7)", "format": "in vivo", "details": "for Fresh weight of the plants (% of control): 14 DAA; for Quantum yield of PSII: three days after foliar application", "procedure": "The trial was carried out in a greenhouse in potato plants. The desiccant (pyraflufen-ethyl, a Protoporphyrinogen Oxidase (PPO) Inhibitor) was applied by spraying at different percentage of the recommended doses alone or combined with polyferulates. The effect of the herbicide was first evaluated by measurements of the photosynthetic capacity of treated leaves using the QY (quantum yield) three days after foliar application and the final desiccation efficiency was evaluated 14 days after treatment. The herbicide activity (desiccation efficiency) was evaluated as fresh weight reduction respect to untreated plants (control) an expressed in percentage."}, "[4]": {"tested_on": "Tomato (Solanum lycopersicum) plants", "assay": "Herbicide uptake into plant foliage: distribution of pyraflufen-ethyl between leaf fractions (Example 9)", "format": "in vivo", "details": "tomato leaves", "procedure": "Tomato (Solanum lycopersicum) plants were sprayed with a diluted solution of pyraflufen-ethyl herbicide or a diluted solution of pyraflufen-ethyl herbicide combined with polyferulates. Samples of treated leaves were taken at 2 h and 24 h after treatment. An extraction procedure following successive steps was used to describe the distribution of pyraflufen-ethyl residues on and in plant leaves. Four fractions of pesticide residues were recovered: (i) the fraction of pesticide susceptible to wash-off by rain that was assumed to correspond to the water-washable fraction, (ii) the fraction of pesticide having adsorbed on the leaf surface that was assumed to correspond to the ethanol-extracted fraction, (iii) the fraction of pesticide having penetrated into the cuticle that was assumed to correspond to the hexane-extracted fraction, and (iv) the fraction of pesticide having penetrated into the foliar tissues that was assumed to correspond to the bound residues fraction."}, "potato plants [5]": {"tested_on": "potato plants", "assay": "Desiccant action on potato leaf in function of polyferulate application timing (Example 8)", "format": "in vivo", "details": "application rate 10.6 g a.i. ha^−1; 15 days after treatment", "description": "Polyferulates were applied the day before the desiccant spraying (D−1), in tank mix combination with the desiccant (D−0) or the day after the desiccant spraying (D+1). […] The desiccant was applied by spraying."}, "[6]": {"details": "pyraflufen-ethyl at 25% of recommended dose"}, "[7]": {"details": "pyraflufen-ethyl at 50% of recommended dose"}, "[8]": {"details": "pyraflufen-ethyl at 75% of recommended dose"}, "[9]": {"details": "pyraflufen-ethyl at 100% of recommended dose"}}, "data": [{"compound": "CCOC(=O)C(Cl)Cc1cc(-n2nc(C)n(C(F)F)c2=O)c(F)cc1Cl", "note": "(centres unmarked) [Carfentrazone-ethyl]", "values": [{"measurement": "Desiccation (%)", "setting": "potato plants [1]", "result": 56, "unit": "%"}, {"measurement": "Desiccation (%)", "setting": "potato plants [2]; application rate 30", "result": 73, "unit": "%"}, {"measurement": "Desiccation (%)", "setting": "potato plants [2]; application rate 60", "result": 96, "unit": "%"}]}, {"compound": "CCOC1Oc2ccc(OS(C)(=O)=O)cc2C1(C)C", "note": "(centres unmarked) [Ethofumesate]", "values": [{"measurement": "Herbicide activity (fresh weight reduction compared to untreated plants)", "setting": "Lemna minor", "result": 0}]}, {"compound": "COc1cc(/C=C/C(=O)O)ccc1O", "note": "[Ferulic acid, (2E)-3-(4-hydroxy-3methoxyphenyl)prop-2-enoic acid]", "values": [{"measurement": "Desiccation (%)", "setting": "potato plants [2]; application rate 12", "result": 3, "unit": "%"}, {"measurement": "effect in combination with the herbicides tested (synergistic / antagonist)", "setting": "potato plants [2]", "result": "antagonist"}]}, {"compound": "O=C(O)CNCP(=O)(O)O", "note": "[Glyphosate]", "values": [{"measurement": "Herbicide activity", "setting": "Echinochloa colona; application rate 550 g a.i. ha^−1", "result": 59, "unit": "%"}]}, {"compound": "CCCCCCCCC(=O)O", "note": "[Pelargonic acid]", "values": [{"measurement": "Desiccation (%)", "setting": "potato plants [2]; application rate 2720", "result": 51, "unit": "%"}, {"measurement": "Desiccation (%)", "setting": "potato plants [2]; application rate 5440", "result": 68, "unit": "%"}, {"measurement": "Desiccation (%)", "setting": "potato plants [2]; application rate 10880", "result": 95, "unit": "%"}]}, {"compound": "COc1cnc(OC)n2nc(NS(=O)(=O)c3c(OCC(F)F)cccc3C(F)(F)F)nc12", "note": "[Penoxsulam]", "values": [{"measurement": "Herbicide activity", "setting": "Echinochloa colona; application rate 30 g a.i. ha^−1", "result": 16, "unit": "%"}]}, {"compound": "COC(=O)Nc1cccc(OC(=O)Nc2cccc(C)c2)c1", "note": "[Phenmedipham]", "values": [{"measurement": "Herbicide activity (fresh weight reduction compared to untreated plants)", "setting": "Lemna minor", "result": 3}]}, {"compound": "CCCC(=NOCC(C)Oc1ccc(Cl)cc1)C1=C(O)CC(C2CCCSC2)CC1=O", "note": "(centres unmarked) [Profoxydim]", "values": [{"measurement": "Herbicide activity", "setting": "Echinochloa colona; application rate 110 g a.i. ha^−1", "result": 34, "unit": "%"}, {"measurement": "Herbicide activity (fresh weight reduction compared to untreated plants)", "setting": "Lemna minor", "result": 45}]}, {"compound": "CCOC(=O)COc1cc(-c2nn(C)c(OC(F)F)c2Cl)c(F)cc1Cl", "note": "[Pyraflufen-ethyl]", "values": [{"measurement": "Fresh weight of the plants (% of control)", "setting": "potato plants [3]; [6]", "result": "39 % of control"}, {"measurement": "Quantum yield of PSII", "setting": "potato plants [3]; [6]", "result": 0.6}, {"measurement": "Fresh weight of the plants (% of control)", "setting": "potato plants [3]; [7]", "result": "22 % of control"}, {"measurement": "Quantum yield of PSII", "setting": "potato plants [3]; [7]", "result": 0.461}, {"measurement": "Fresh weight of the plants (% of control)", "setting": "potato plants [3]; [8]", "result": "14 % of control"}, {"measurement": "Quantum yield of PSII", "setting": "potato plants [3]; [8]", "result": 0.385}, {"measurement": "Fresh weight of the plants (% of control)", "setting": "potato plants [3]; [9]", "result": "10 % of control"}, {"measurement": "Quantum yield of PSII", "setting": "potato plants [3]; [9]", "result": 0.335}, {"measurement": "Desiccation (%)", "setting": "potato plants [2]; application rate 5.3", "result": 60, "unit": "%"}, {"measurement": "Desiccation (%)", "setting": "potato plants [2]; application rate 10.6", "result": 78, "unit": "%"}, {"measurement": "Desiccation (%)", "setting": "potato plants [2]; application rate 15.9", "result": 85, "unit": "%"}, {"measurement": "Desiccation (%)", "setting": "potato plants [2]; application rate 21.2", "result": 90, "unit": "%"}, {"measurement": "pyraflufen-ethyl in Bound residues fraction", "setting": "[4]; 2 h after treatment", "result": "0.16 μg/g of fresh weight leaves"}, {"measurement": "pyraflufen-ethyl in Ethanol-extracted fraction", "setting": "[4]; 2 h after treatment", "result": "1.88 μg/g of fresh weight leaves"}, {"measurement": "pyraflufen-ethyl in Hexane-extracted fraction", "setting": "[4]; 2 h after treatment", "result": "0.51 μg/g of fresh weight leaves"}, {"measurement": "pyraflufen-ethyl in Water-washable fraction", "setting": "[4]; 2 h after treatment", "result": "3.34 μg/g of fresh weight leaves"}, {"measurement": "pyraflufen-ethyl in Bound residues fraction", "setting": "[4]; 24 h after treatment", "result": "0.12 μg/g of fresh weight leaves"}, {"measurement": "pyraflufen-ethyl in Ethanol-extracted fraction", "setting": "[4]; 24 h after treatment", "result": "1.59 μg/g of fresh weight leaves"}, {"measurement": "pyraflufen-ethyl in Hexane-extracted fraction", "setting": "[4]; 24 h after treatment", "result": "0.94 μg/g of fresh weight leaves"}, {"measurement": "pyraflufen-ethyl in Water-washable fraction", "setting": "[4]; 24 h after treatment", "result": "3.1 μg/g of fresh weight leaves"}, {"measurement": "Desiccation (%)", "setting": "potato plants [5]", "result": 79, "unit": "%"}]}, {"compound": "COC(=O)c1cccc(C)c1S(=O)(=O)NC(=O)Nc1nc(OCC(F)(F)F)nc(N(C)C)n1", "note": "[Triflusulfuron-methyl]", "values": [{"measurement": "Herbicide activity (fresh weight reduction compared to untreated plants)", "setting": "Lemna minor", "result": 34}]}, {"compound": "Diferulic acid", "values": [{"measurement": "Desiccation (%)", "setting": "potato plants [2]; application rate 12", "result": 2, "unit": "%"}, {"measurement": "effect in combination with the herbicides tested (synergistic / antagonist)", "setting": "potato plants [2]", "result": "antagonist"}]}]}
